The values below come from patent US6656709B1, “Methods of increasing the production of cobalamins using cob gene expression” (priority 1990, dated 2003).

Test [1] deals with crude extract of strain SC510 Rif^r. Nature of the test: Enzymatic chelation with cobalt in crude extract of strain SC510 Rif^r. The format is biochemical, Pseudomonas denitrificans. Conditions: 7 mM ATP, 200 μM CoCl2. On the procedure: A crude extract of strain SC510 Rif^r is obtained by sonication of wet cells (10 g) in 0.2 M Tris-HCl buffer pH 8.0 (20 ml), followed by removal of the cell debris by centrifugation for 1 h at 50,000×g. Proteins (1000 mg) of this extract are incubated for 1 h at 30° C. with carbon-14-labelled hydrogenobyrinic acid diamide (32 nmol; 50 μCi/μmol) in 0.2 M Tris-HCl buffer pH 8.0 (40 ml) containing 7 mM ATP and 200 μM CoCl2. The reaction is stopped by adding 1 M KH2PO4 (7.5 ml) and 0.3 M KCN (6 ml), followed by heating for 10 min at 80° C. […] To confirm that the product is indeed cobyrinic acid a,c-diamide, the product is purified by HPLC and then esterified in methanol containing 5% of sulphuric acid (18 h, 20° C.). […] It should be noted that, under similar incubation conditions in which the radioactive labelling is introduced, not into the hydrogenobyrinic acid a,c-diamide, but into the cobalt (using cobalt-57), cobalt-57-labelled cobyrinic acid a,c-diamide is biosynthesised and the same conclusions could be drawn.

Test [2] addresses Pseudomonas denitrificans SUMT (Sinorhizobium sp, UniProt P21631). Conditions: cited from earlier work.
For test [3], the target named is T1, Methanobacterium ivanovii SUMT (Methanobacterium ivanovii, UniProt P29564).
T1 construct: endogenous in cells; host or cells: Methanobacterium ivanovii DSM2611 (enzyme purified to homogeneity from the natural organism)
T1 sequence (P29564 2-231 limits assumed): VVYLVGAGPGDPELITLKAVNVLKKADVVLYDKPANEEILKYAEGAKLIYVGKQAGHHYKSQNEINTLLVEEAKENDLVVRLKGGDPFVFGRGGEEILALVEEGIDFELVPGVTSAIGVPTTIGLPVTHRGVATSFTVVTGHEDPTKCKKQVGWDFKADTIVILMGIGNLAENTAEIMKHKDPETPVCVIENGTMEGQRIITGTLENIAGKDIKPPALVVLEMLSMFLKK
As to the kind of experiment: Catalytic properties of purified M. ivanovii SUMT. The format is biochemical. As to the method: Methanobacterium ivanovii strain DSM2611 is cultured as described (Souillard et al., 1988). Wet cells (12 g) are obtained. The latter are resuspended in 0.1 M Tris-HCl buffer pH 7.6 (80 ml) containing 5 mM DTT and 1 mM EDTA, and sonicated for 1 h 30 min at 4° C. and then centrifuged for 1 h at 50,000 g. Free tetrapyrrole compounds are then cleared from the extract by passage through a small DEAE-Sephadex A25 column set up in the same buffer. The proteins precipitating at between 55 and 75% ammonium sulphate saturation are solubilised in a 0.1 M Tris-HCl pH 7.5, 0.5 mM DTT, 1.7 M ammonium sulphate buffer and injected onto a Phenyl-Superose HR 10/10 (Pharmacia France/SA) column eluted with a decreasing gradient (1.7 M to 0 M with respect to ammonium sulphate). The active fractions are passed through a Sephadex G-25 column equilibrated with 0.1 M Tris-HCl pH 7.5, 0.5 mM DTT, 25% glycerol buffer (buffer A), then injected onto a Mono Q HR 5/5 (Pharmacia France SA) column equilibrated with buffer A and eluted with a KCl gradient of 0 to 0.3 M; this step is repeated a second time under the same conditions. Gel permeation chromatography of the active fraction of the preceding step on Bio-Sil TSK-250 (BioRad France SA) enables a protein which is homogeneous in SDS-PAGE and in RP-HPLC (C-18 pBondapak) to be obtained. The different steps of purification, with their yield, as well as their purification factor, are described in the table below.
As shown in this table, the total purification factor is more than 4,500. Some properties of the pure enzyme have been studied according to methods already described (Blanche et al., 1989). This enzyme does indeed have SUMT activity, i.e. it does indeed catalyse the SAM-dependant transfer of two methyl groups at C-2 and at C-7 of uro'gen III.
The Vmax of M. ivanovii SUMT was determined. It is 1537 U/mg of proteins. This value is greater than that found for P. denitrificans SUMT, already determined under optimal conditions for the reaction (taking account of its inhibition by uro'gen III), 489 U/mg of proteins (Blanche et al., 1989).

Pseudomonas denitrificans SUMT, sequence (P21631 whole entry): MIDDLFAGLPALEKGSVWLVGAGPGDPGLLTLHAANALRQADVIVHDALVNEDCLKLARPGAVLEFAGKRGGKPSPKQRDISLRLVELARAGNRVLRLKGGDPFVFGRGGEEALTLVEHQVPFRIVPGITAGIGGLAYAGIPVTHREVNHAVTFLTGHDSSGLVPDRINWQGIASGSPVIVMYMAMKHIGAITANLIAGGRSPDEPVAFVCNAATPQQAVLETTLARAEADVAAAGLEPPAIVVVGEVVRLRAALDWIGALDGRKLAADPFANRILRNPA

As to `C/C1=C2N=C(/C=C3\N/C(=C(/C)C4=NC(C)(C5N=C1C(C)(CCC(=O)O)C5CC(=O)O)C(C)(CC(=O)O)C4CCC(=O)O)C(C)(CC(=O)O)C3CCC(=O)O)C(C)(C)C/2CCC(=O)O` (stereo not shown) [hydrogenobyrinic acid], in test [1], the “substrate for enzymatic chelation with cobalt” value is “not a substrate”.
Turning to uroporphyrinogen III [uro'gen III], the “concentration above which inhibition by uro'gen III is shown” value in test [2] is reported as “above 2 μM”. In addition, the inhibition by substrate entry in test [3] (at concentrations below 20 μM) was “does not show inhibition by substrate”. Also, the Km in test [3] (conditions of Blanche et al., 1989) came to 0.052 µM.

For orientation: Km means the concentration of substrate that gives half-maximal velocity.
